Test results from the NIST ThermoML archive (doi:10.1016/j.fluid.2013.09.026).
± gives the expanded uncertainty stated by the source.

Test: cn = amount concentration of the nth substance listed, in mol/dm3
Settings: 303 K, 101 kPa, Liquid; for viscosity: Capillary tube (Ostwald / Ubbelohde) method; for speed of sound: Linear variable-path acoustic interferometer; for mass density: Pycnometric method

Row | Structure (SMILES) | viscosity (c1 = 0.002) [mPa·s] | viscosity (c1 = 0.004) [mPa·s] | viscosity (c1 = 0.006) [mPa·s] | viscosity (c1 = 0.008) [mPa·s] | viscosity (c1 = 0.01) [mPa·s] | viscosity (c1 = 0.012) [mPa·s] | viscosity (c1 = 0.014) [mPa·s] | viscosity (c1 = 0.016) [mPa·s] | viscosity (c1 = 0.018) [mPa·s] | viscosity (c1 = 0.02) [mPa·s] | speed of sound (c1 = 0.002) [m/s] | speed of sound (c1 = 0.004) [m/s] | speed of sound (c1 = 0.006) [m/s] | speed of sound (c1 = 0.008) [m/s] | speed of sound (c1 = 0.01) [m/s] | speed of sound (c1 = 0.012) [m/s] | speed of sound (c1 = 0.014) [m/s] | speed of sound (c1 = 0.016) [m/s] | speed of sound (c1 = 0.018) [m/s] | speed of sound (c1 = 0.02) [m/s] | further results
1 | O=C1C(Cl)=C(Cl)C(=O)C(Cl)=C1Cl [2,3,5,6-tetrachloro-p-benzoquinone] + C[S+](C)[O-] | 1.756 ± 0.017 | 1.757 ± 0.017 | 1.758 ± 0.017 | 1.773 ± 0.017 | 1.769 ± 0.017 | 1.767 ± 0.017 | 1.76 ± 0.017 | 1.756 ± 0.017 | 1.767 ± 0.017 | 1.769 ± 0.017 | 1472.4 ± 3.2 | 1472.6 ± 3.2 | 1471.9 ± 3.2 | 1471.3 ± 3.2 | 1471.6 ± 3.2 | 1470.3 ± 3.2 | 1467.1 ± 3.2 | 1468.3 ± 3.2 | 1468.5 ± 3.2 | 1468.7 ± 3.2 | mass density (c1 = 0.002): 1091.4 ± 0.8 kg/m3; mass density (c1 = 0.004): 1091.6 ± 0.8 kg/m3; mass density (c1 = 0.006): 1091.9 ± 0.8 kg/m3; mass density (c1 = 0.008): 1091.9 ± 0.8 kg/m3; mass density (c1 = 0.01): 1092.1 ± 0.8 kg/m3; mass density (c1 = 0.012): 1091.6 ± 0.8 kg/m3; mass density (c1 = 0.014): 1091.4 ± 0.8 kg/m3; mass density (c1 = 0.016): 1091.2 ± 0.8 kg/m3; mass density (c1 = 0.018): 1091.7 ± 0.8 kg/m3; mass density (c1 = 0.02): 1091.7 ± 0.8 kg/m3
2 | Nc1ccccc1 [aniline] + C[S+](C)[O-] | 1.789 ± 0.017 | 1.798 ± 0.017 | 1.79 ± 0.017 | 1.79 ± 0.017 | 1.806 ± 0.017 | 1.777 ± 0.017 | 1.802 ± 0.017 | 1.819 ± 0.018 | 1.79 ± 0.017 | 1.792 ± 0.017 | 1471.6 ± 3.2 | 1473.9 ± 3.2 | 1473.4 ± 3.2 | 1472.7 ± 3.2 | 1474.1 ± 3.2 | 1473.7 ± 3.2 | 1472.7 ± 3.2 | 1472.8 ± 3.2 | 1473 ± 3.2 | 1474 ± 3.2 | mass density (c1 = 0.002): 1090.4 ± 0.8 kg/m3; mass density (c1 = 0.004): 1090.6 ± 0.8 kg/m3; mass density (c1 = 0.006): 1090.7 ± 0.8 kg/m3; mass density (c1 = 0.008): 1090.2 ± 0.8 kg/m3; mass density (c1 = 0.01): 1090.6 ± 0.8 kg/m3; mass density (c1 = 0.012): 1090.4 ± 0.8 kg/m3; mass density (c1 = 0.014): 1090.5 ± 0.8 kg/m3; mass density (c1 = 0.016): 1090.3 ± 0.8 kg/m3; mass density (c1 = 0.018): 1090.4 ± 0.8 kg/m3; mass density (c1 = 0.02): 1090.6 ± 0.8 kg/m3
3 | CNc1ccccc1 [N-methylaniline] + C[S+](C)[O-] | 1.713 ± 0.016 | 1.713 ± 0.016 | 1.723 ± 0.016 | 1.718 ± 0.016 | 1.724 ± 0.016 | 1.733 ± 0.016 | 1.723 ± 0.016 | 1.718 ± 0.016 | 1.718 ± 0.016 | 1.72 ± 0.016 | 1471.6 ± 3.2 | 1471.8 ± 3.2 | 1472 ± 3.2 | 1471.2 ± 3.2 | 1471.7 ± 3.2 | 1473.5 ± 3.2 | 1472.5 ± 3.2 | 1471.9 ± 3.2 | 1473 ± 3.2 | 1473.9 ± 3.2 | mass density (c1 = 0.002): 1090.8 ± 0.8 kg/m3; mass density (c1 = 0.004): 1090.4 ± 0.8 kg/m3; mass density (c1 = 0.006): 1090 ± 0.8 kg/m3; mass density (c1 = 0.008): 1089.6 ± 0.8 kg/m3; mass density (c1 = 0.01): 1089.8 ± 0.8 kg/m3; mass density (c1 = 0.012): 1090 ± 0.8 kg/m3; mass density (c1 = 0.014): 1089.7 ± 0.8 kg/m3; mass density (c1 = 0.016): 1089.8 ± 0.8 kg/m3; mass density (c1 = 0.018): 1089.8 ± 0.8 kg/m3; mass density (c1 = 0.02): 1090.1 ± 0.8 kg/m3
4 | Cc1ccccc1N [2-methylaniline] + C[S+](C)[O-] | 1.713 ± 0.016 | 1.713 ± 0.016 | 1.723 ± 0.016 | 1.718 ± 0.016 | 1.72 ± 0.016 | 1.723 ± 0.016 | 1.718 ± 0.016 | 1.724 ± 0.016 | 1.733 ± 0.016 | 1.723 ± 0.016 | 1471.4 ± 3.2 | 1471.8 ± 3.2 | 1472 ± 3.2 | 1471.2 ± 3.2 | 1472.6 ± 3.2 | 1473.5 ± 3.2 | 1472.5 ± 3.2 | 1471.9 ± 3.2 | 1473 ± 3.2 | 1473.9 ± 3.2 | mass density (c1 = 0.002): 1090.8 ± 0.8 kg/m3; mass density (c1 = 0.004): 1090.4 ± 0.8 kg/m3; mass density (c1 = 0.006): 1090.5 ± 0.8 kg/m3; mass density (c1 = 0.008): 1089.6 ± 0.9 kg/m3; mass density (c1 = 0.01): 1089.5 ± 0.8 kg/m3; mass density (c1 = 0.012): 1090 ± 0.8 kg/m3; mass density (c1 = 0.014): 1089.7 ± 0.8 kg/m3; mass density (c1 = 0.016): 1089.8 ± 0.8 kg/m3; mass density (c1 = 0.018): 1089.4 ± 0.8 kg/m3; mass density (c1 = 0.02): 1090.3 ± 0.9 kg/m3
5 | CN(C)c1ccccc1 [N,N-dimethylaniline] + C[S+](C)[O-] | 1.734 ± 0.016 | 1.725 ± 0.016 | 1.721 ± 0.016 | 1.731 ± 0.016 | 1.747 ± 0.017 | 1.724 ± 0.016 | 1.73 ± 0.016 | 1.731 ± 0.016 | 1.733 ± 0.016 | 1.732 ± 0.016 | 1471.9 ± 3.2 | 1472.5 ± 3.2 | 1471.9 ± 3.2 | 1472.6 ± 3.2 | 1471.8 ± 3.2 | 1472.1 ± 3.2 | 1472.3 ± 3.2 | 1471.6 ± 3.2 | 1472.2 ± 3.2 | 1472 ± 3.2 | mass density (c1 = 0.002): 1090.7 ± 0.8 kg/m3; mass density (c1 = 0.004): 1090.4 ± 0.8 kg/m3; mass density (c1 = 0.006): 1090.7 ± 0.8 kg/m3; mass density (c1 = 0.008): 1090.6 ± 0.8 kg/m3; mass density (c1 = 0.01): 1089.9 ± 0.8 kg/m3; mass density (c1 = 0.012): 1089.6 ± 0.8 kg/m3; mass density (c1 = 0.014): 1090.1 ± 0.8 kg/m3; mass density (c1 = 0.016): 1089.8 ± 0.8 kg/m3; mass density (c1 = 0.018): 1090.3 ± 0.8 kg/m3; mass density (c1 = 0.02): 1090.2 ± 0.8 kg/m3
